Patent US12077503B2, “Substituted cyclic amides and their use as herbicides” (FMC CORPORATION, priority 2015, dated 2024)

What was measured:
Format in all cases: in vivo
Kochia (Kochia scoparia) [1] = assay: Test A preemergence; conditions: Preemergence
From the text: (§1) Seeds of plant species selected from barnyardgrass (Echinochloa crus-galli), Kochia (Kochia scoparia), ragweed (common ragweed, Ambrosia elatior), ryegrass, Italian (Italian ryegrass, Lolium multiflorum), crabgrass, large (Digitaria sanguinalis), giant foxtail (Setaria faberii), green foxtail (Setaria viridis), morningglory (Ipomoea spp.), pigweed (Amaranthus retroflexus), velvetleaf (Abutilon theophrasti), wheat (Triticum aestivum), and corn (Zea mays) were planted into a blend of loam soil and sand and treated preemergence with a directed soil spray using test chemicals formulated in anon-phytotoxic solvent mixture which included a surfactant.
(§2) At the same time, plants selected from these crop and weed species and also blackgrass (Alopecurus myosuroides), and Galium (catchweed bedstraw, Galium aparine) were planted in pots containing the same blend of loam soil and sand and treated with postemergence applications of test chemicals formulated in the same manner. Plants ranged in height from 2 to 10 cm and were in the one- to two-leaf stage for the postemergence treatment. Treated plants and untreated controls were maintained in a greenhouse for approximately 10 d, after which time all treated plants were compared to untreated controls and visually evaluated for injury. Plant response ratings, summarized in Table A, are based on a 0 to 100 scale where 0 is no effect and 100 is complete control. A dash (-) response means no test result.

[2] = tested on: barnyardgrass (Echinochloa crus-galli); assay: Test A preemergence; conditions: Preemergence
From the text: as §1, §2

[3] = tested on: giant foxtail (Setaria faberii); assay: Test A preemergence; conditions: Preemergence
From the text: as §1, §2

[4] = tested on: pigweed (Amaranthus retroflexus); assay: Test A preemergence; conditions: Preemergence
From the text: as §1, §2

[5] = tested on: ragweed (common ragweed, Ambrosia elatior); assay: Test A preemergence; conditions: Preemergence
From the text: as §1, §2

[6] = tested on: ryegrass, Italian (Italian ryegrass, Lolium multiflorum); assay: Test A preemergence; conditions: Preemergence
From the text: as §1, §2

[7] = tested on: Galium (catchweed bedstraw, Galium aparine); assay: Test A postemergence
From the text: as §1, §2

Kochia (Kochia scoparia) [8] = assay: Test A postemergence
From the text: as §1, §2

[9] = tested on: barnyardgrass (Echinochloa crus-galli); assay: Test A postemergence
From the text: as §1, §2

[10] = tested on: blackgrass (Alopecurus myosuroides); assay: Test A postemergence
From the text: as §1, §2

corn (Zea mays) = assay: Test A postemergence
From the text: as §1, §2

[11] = tested on: giant foxtail (Setaria faberii); assay: Test A postemergence
From the text: as §1, §2

[12] = tested on: pigweed (Amaranthus retroflexus); assay: Test A postemergence
From the text: as §1, §2

[13] = tested on: ragweed (common ragweed, Ambrosia elatior); assay: Test A postemergence
From the text: as §1, §2

[14] = tested on: ryegrass, Italian (Italian ryegrass, Lolium multiflorum); assay: Test A postemergence
From the text: as §1, §2

[15] = tested on: wheat (Triticum aestivum); assay: Test A postemergence
From the text: as §1, §2

[16] = tested on: barnyardgrass (Echinochloa crus-galli); assay: Test B flooded paddy test; conditions: Flood, 250 g ai/ha; 0 to 100 scale where 0 is no effect and 100 is complete control; 13 to 15 d
Protocol: (§3) Plant species in the flooded paddy test selected from rice (Oryra sativa), sedge, umbrella (small-flower umbrella sedge, Cyperus difformis), ducksalad (Heteranthera limosa), and barnyardgrass (Echinochloa crus-galli) were grown to the 2-leaf stage for testing. At time of treatment, test pots were flooded to 3 cm above the soil surface, treated by application of test compounds directly to the paddy water, and then maintained at that water depth for the duration of the test. Treated plants and controls were maintained in a greenhouse for 13 to 15 d, after which time all species were compared to controls and visually evaluated. Plant response ratings, summarized in Table B, are based on a scale of 0 to 100 where 0 is no effect and 100 is complete control. A dash (-) response means no test result.

[17] = tested on: ducksalad (Heteranthera limosa); assay: Test B flooded paddy test; conditions: Flood, 250 g ai/ha; 0 to 100 scale where 0 is no effect and 100 is complete control; 13 to 15 d
Protocol: as §3

rice (Oryra sativa) = assay: Test B flooded paddy test; conditions: Flood, 250 g ai/ha; 0 to 100 scale where 0 is no effect and 100 is complete control; 13 to 15 d
Protocol: as §3

[18] = tested on: sedge, umbrella (small-flower umbrella sedge, Cyperus difformis); assay: Test B flooded paddy test; conditions: Flood, 250 g ai/ha; 0 to 100 scale where 0 is no effect and 100 is complete control; 13 to 15 d
Protocol: as §3

[19] = 125 g ai/ha, visual injury after approximately 10 d, 0 to 100 scale where 0 is no effect and 100 is complete control
[20] = 500 g ai/ha, visual injury approx. 10 d
[21] = 125 g ai/ha, postemergence, visual rating after approx. 10 d, 0 to 100 scale (0 no effect, 100 complete control)
[22] = Postemergence, 500 g ai/ha, 0 to 100 scale where 0 is no effect and 100 is complete control

Structure (SMILES): O=C1NCC(c2cc(F)c(F)cc2F)C1C(=O)Nc1cccc(F)c1F (racemic) [Compound 550]
- Plant response rating, Kochia (Kochia (Kochia scoparia) [1]; [19]): 0
- Kochia plant response rating (0 to 100 scale, 0 is no effect, 100 is complete control) (Kochia (Kochia scoparia) [1]; [20]): 40
- Plant response rating, Barnyardgrass [2, 19]: 40
- Barnyardgrass plant response rating (0 to 100 scale, 0 is no effect, 100 is complete control) [2, 20]: 90
- Plant response rating, Foxtail, Giant [3, 19]: 90
- Foxtail, Giant plant response rating (0 to 100 scale, 0 is no effect, 100 is complete control) [3, 20]: 90
- Plant response rating, Pigweed [4, 19]: 0
- Pigweed plant response rating (0 to 100 scale, 0 is no effect, 100 is complete control) [4, 20]: 0
- Plant response rating, Ragweed [5, 19]: 0
- Ragweed plant response rating (0 to 100 scale, 0 is no effect, 100 is complete control) [5, 20]: 0
- Plant response rating, Ryegrass, Italian [6, 19]: 0
- Ryegrass, Italian plant response rating (0 to 100 scale, 0 is no effect, 100 is complete control) [6, 20]: 20
- Plant response rating, Galium [7, 21]: 0
- Plant response rating, Galium [7, 22]: 60
- Plant response rating, Kochia (Kochia (Kochia scoparia) [8]; [21]): 0
- Plant response rating, Kochia (Kochia (Kochia scoparia) [8]; [22]): 50
- Plant response rating, Barnyardgrass [9, 21]: 80
- Plant response rating, Barnyardgrass [9, 22]: 90
- Plant response rating, Blackgrass [10, 21]: 0
- Plant response rating, Blackgrass [10, 22]: 50
- Plant response rating, Corn (corn (Zea mays); [21]): 0
- Plant response rating, Corn (corn (Zea mays); [22]): 20
- Plant response rating, Foxtail, Giant [11, 21]: 80
- Plant response rating, Foxtail, Giant [11, 22]: 90
- Plant response rating, Pigweed [12, 21]: 0
- Plant response rating, Pigweed [12, 22]: 0
- Plant response rating, Ragweed [13, 21]: 0
- Plant response rating, Ragweed [13, 22]: 0
- Plant response rating, Ryegrass, Italian [14, 21]: 0
- Plant response rating, Ryegrass, Italian [14, 22]: 20
- Plant response rating, Wheat [15, 21]: 0
- Plant response rating, Wheat [15, 22]: 30
- Plant response rating, Barnyardgrass [16]: 55
- Plant response rating, Ducksalad [17]: 95
- Plant response rating, Rice (rice (Oryra sativa)): 50
- Plant response rating, Sedge, Umbrella [18]: 0
